# Assay results from PMC7689089, “Regorafenib combined with PD1 blockade increases CD8 T-cell infiltration by inducing CXCL10 expression in hepatocellular carcinoma” (Journal for Immunotherapy of Cancer, 2020).
# Legend:
# [1] = test system: RIL-175 HCC vasculature; experiment: Tumor vessel and hypoxia immunofluorescence (CD31, α-SMA, CA-IX) in RIL-175 orthotopic HCC; format: in vivo, mouse; settings: regorafenib 10 mg/kg; day 12; vs control
# Protocol: Figure 1 Dose-dependent effects of regorafenib on vascular normalization when used in combination with programmed cell death protein 1 (PD1) blockade in RIL-175 hepatocellular carcinoma (HCC) model. (A, B) Mice with established (4–5 mm in diameter) HCCs were treated with anti-PD1 therapy (P) alone or in combination with 5 mg/kg (R5), 10 mg/kg (R10) or 20 mg/kg (R20) regorafenib versus control (C) (n=8 mice per group, 1-week treatment). We used immunofluorescence (IF) for evaluation of tumor vessels by CD31 and α-smooth muscle actin (α-SMA) immunostaining. […] Representative IF of tumor sections after staining for CD31 (for endothelial cells in green) and α-SMA (for pericytes in red) and DAPI counterstaining (in blue). Five random fields from the tumor center (defined as no inclusion of the edge of the tumor) were evaluated for each sample. Data represent mean values. Scale bars=500 µm. (C) Representative IF confocal microscopy images of tumor vessels using and CD31 staining (green) and tissue hypoxia using CA-IX staining (red) of whole liver sections; scale bars=2 mm. […] (E) Representative IF confocal microscopy images of mature tumor vessels using CD31 staining (green) and α-SMA staining (red) of RIL-175 tumors; scale bars, 100 µm.
# [2] = test system: RIL-175 cells; experiment: STAT1/STAT3 activity in RIL-175 cells in vitro (western blot); format: cell-based, mouse; settings: 1 µM in vitro
# Protocol: (A) Changes induced by combination of regorafenib (10 mg/kg) with anti-PD1 antibody in immune-related pathways from the gene set enrichment analysis (GSEA) using curated gene sets in RIL-175 HCC model (see also online supplemental dataset S1 and figure S2E). (B, C) Changes induced by combination of regorafenib (10 mg/kg) with anti-PD1 antibody in STAT3 and STAT1 activity (B), showing an increased ratio of phosphorylated (p)-STAT1/p-STAT3 (normalized to total STAT1 and STAT3, respectively) by western blot analysis of whole RIL-175 HCC tissue (C) (n=4 mice). (D) Treatment with regorafenib increases CXCL10 expression by RIL-175 HCC cells in vitro after 36 hours, in a dose-dependent manner (n=6). Culture medium alone was used as a negative control (NC). […] (J, K) Combination therapy increases CXCL10 protein expression in whole RIL-175 tumor tissue 6 hours and 12 hours after in vivo when regorafenib treatment was used at doses of 10 mg/kg (R10) and 20 mg/kg (R20) (n=3) by western blot analysis (J); quantitative data of CXCL10/β-actin ratios are shown in (K). […]
# Flow cytometry analysis. […] After preparation, cells were suspended in 2ml of PBS with 2% BSA, then counted using a cell counting plate (Kova slide) (if the final concentration of cell exceeded 10^7 cells/ml, a dilution factor was applied). […]
smiles,measurement,setting,value
CNC(=O)c1cc(Oc2ccc(NC(=O)Nc3ccc(Cl)c(C(F)(F)F)c3)c(F)c2)ccn1 [regorafenib],Hypoxic tissue area measured by CA-IX staining,[1],significantly decreased
same,MVD,[1],significant increase
same,STAT1 and STAT3 activity (p-STAT1/p-STAT3) in RIL-175 cells,[2],STAT1 activation and STAT3 inhibition
